Source: patent US10590460B2, “Selective enrichment medium for carbapenem-resistant bacteria” (priority 2008, dated 2020)

How the values were obtained:
[1] = test system: carbapenem-sensitive flora; experiment: Culture of carbapenem-sensitive or carbapenem-resistant strains on CHROMagar Orientation medium with a carbapenem; format: cell-based
Procedure: Different strains of carbapenem-sensitive bacteria or carbapenem-resistant bacteria were cultured under three sets of conditions: • group 1: CHROMagar Orientation medium • group 2: CHROMagar Orientation medium in the presence of meropenem (0.065; 0.25; 1 or 4 mg/L); and • group 3: CHROMagar Orientation medium in the presence of imipenem (MSD, TIENAM (includes 50% imipenem) 0.0325; 0.125; 0.5 or 2 mg/L of imipenem)
Different strains of carbapenem-sensitive bacteria or carbapenem-resistant bacteria were cultured under two sets of conditions: • group 1: CHROMagar Orientation medium; and • group 2: CHROMagar Orientation medium in the presence of ertapenem (INVAZ; 0.0325; 0.065; 0.125; 0.25; 0.5 or 2 mg/L).

[2] = format: physicochemical
Procedure: (§1) Different strains of carbapenem-sensitive bacteria or carbapenem-resistant bacteria were cultured under three different sets of conditions and with different spreading concentrations: • group 1: CHROMagar Orientation medium • group 2: CHROMagar Orientation medium in the presence of imipenem (MSD, TIENAM (includes 50% imipenem) 1 or 2 mg/L imipenem), and • group 3: CHROMagar Orientation medium in the presence of meropenem (0.12 or 0.25 mg/L).
(§2) Culture plates were then incubated at 37° C. and analysed regularly to establish the growth or absence of growth of bacteria.

[3] = test system: carbapenem-sensitive bacteria; experiment: Ageing tests on meropenem versus imipenem in CHROMagar Orientation medium; format: cell-based
Procedure: as §1, §2

stability in an agar medium (duration) [2] [months]	stability in an agar medium (in words) [2]	stability in the used culture medium compared to imipenem [2]	SMILES	minimum concentration needed to eliminate carbapenem-sensitive flora (in words) ([1]; ertapenem 0.0325-2 mg/L tested)	minimum concentration to eliminate carbapenem-sensitive flora [1] [mg/L]	minimum concentration of meropenem relative to necessary minimum concentration of imipenem [1]	inhibition of the growth of carbapenem-sensitive bacteria ([3]; 0.25 mg/L meropenem, 55 days in culture, 37° C.)	effectiveness in terms of inhibition compared to imipenem ([3]; ageing test, CHROMagar Orientation medium)
2 to 4	good		C[C@@H](O)[C@H]1C(=O)N2C(C(=O)O)=C(S[C@@H]3CN[C@H](C(=O)Nc4cccc(C(=O)O)c4)C3)[C@H](C)[C@H]12 [ertapenem]	falls between that of meropenem and imipenem				
			C[C@@H](O)[C@H]1C(=O)N2C(C(=O)O)=C(SCCN=CN)C[C@H]12 [imipenem]		1			
2 to 4		much higher stability	C[C@@H](O)[C@H]1C(=O)N2C(C(=O)O)=C(S[C@@H]3CN[C@H](C(=O)N(C)C)C3)[C@H](C)[C@H]12 [meropenem]		0.25	about ten times lower	always higher than inhibition obtained at a concentration of 0.12 mg/L of meropenem after 36 days in culture	much more effective than imipenem
